Where “and” joins values, the source holds several entries; their conditions need not be identical. Equal values may be shown once.
Legend:
BALB/c mice [1] = assay: Multi-dose (non)cumulative toxicity, 11 doses at the MND at 12 hour intervals; format: in vivo, mouse
Experimental: Figure 1. All experiments required to determine the elimination half-life using TOXHL. BALB/c mice (6-8 weeks, 20 g) were used for all experiments. (A) Acute toxicity experiments to determine survival vs. concentration of drug injected intraperitoneally. Determining the maximum nonlethal dose (MND), which is the highest concentration of a drug that causes no mortality, is essential for later noncumulative toxicity experiments. Here, the MND for Pexiganan is 32 mg/kg (blue arrow), and the MND for Ω76 is 64 mg/kg (red arrow). (B) Multi-dose (non)cumulative toxicity determination experiments. Here, mice were intraperitoneally injected with 11 doses of drug (at the MND concentration), at 12 hour intervals over the course of 5 days. All mice treated with Pexiganan died, indicating cumulative toxicity. All mice treated with Ω76 survived, indicating noncumulative toxicity. The difference between the survival outcomes of the Ω76 and Pexiganan cohorts are statistically significant (p=7e-3, Fisher’s test). […] 5 doses at the MND were injected intraperitoneally at Δt of 15, 7.5 and 3 minutes. 67% survival (33% mortality) was observed a Δt = 3 minutes (ΔtM, highlighted in yellow). […] Note that a separate set of similar experiments was described in our previous work[19], but these experiments were only used to assess the toxicity of Ω76.
Cumulative toxicity comprises the lethal effects of multiple doses of drug when injected intraperitoneally at MND concentrations. 10 BALB/c mice (6-8 weeks, 20 g) were treated with 11 doses of Pexiganan, administered at the MND (32 mg/kg) at 12 hour intervals, over the course of 5 days. Despite Pexiganan never exceeding the MND concentration, 100% mortality was observed. […] However, this damage is not reversed within the dosing interval timespan (12 hours), and additional doses only serve to incrementally increase the total damage caused to mice, until a threshold is reached and death occurs.
Figure 2. Peritonea of BALB/c mice (6-8 weeks, 20 g) treated with Ω76 and Pexiganan for (non)cumulative toxicity experiments. […]

BALB/c mice [2] = assay: Acute toxicity, single intraperitoneal dose, 5-day survival; format: in vivo, mouse; conditions: highest single intraperitoneal dose causing no mortality in BALB/c mice observed for 5 days
Experimental: Acute toxicity comprises the lethal effects of a single dose of a drug, rather than the combined lethal effects of multiple doses of a drug. BALB/c mice (6-8 weeks, 20 g) were injected intraperitoneally with varying doses of Ω76 and Pexiganan, at 2-fold concentration increments. 5 mice per concentration cohort were used. […] Mice treated with both Ω76 and Pexiganan display mortality that increases in a dose-dependent manner. […] However, for TOXHL, determining the maximum nonlethal dose (MND) rather than the LD50 is more important. […] Here, the MND values for Ω76 and Pexiganan are […] (Figure 1A, shown in arrows).
Figure 1. All experiments required to determine the elimination half-life using TOXHL. BALB/c mice (6-8 weeks, 20 g) were used for all experiments. (A) Acute toxicity experiments to determine survival vs. concentration of drug injected intraperitoneally. Determining the maximum nonlethal dose (MND), which is the highest concentration of a drug that causes no mortality, is essential for later noncumulative toxicity experiments. Here, the MND for Pexiganan is 32 mg/kg (blue arrow), and the MND for Ω76 is 64 mg/kg (red arrow). (B) Multi-dose (non)cumulative toxicity determination experiments. Here, mice were intraperitoneally injected with 11 doses of drug (at the MND concentration), at 12 hour intervals over the course of 5 days. […]

[3] = Solubility of peptide stocks in saline vs PBS; format: physicochemical; conditions: 20 mg/mL stocks prepared in physiological saline (0.8% NaCl)
Experimental: For all experiments described in this work, BALB/c mice (6-8 weeks, 20 g) were housed at the Central Animal Facility (CAF, IISc) and fed ad libitum with pellet feed and water. All animal experiments were approved by the Institutional Animal Ethics Committee, IISc (Project No. CAF/Ethics/550/2017). A detailed description of all methods used is provided in the results section. However, it should be noted that 20 mg/mL stocks for both Ω76 and Pexiganan were prepared in physiological saline (0.8% NaCl) and stored at −80 °C. […] These stocks were diluted in saline to obtain the concentration needed for the specific experiment. All intraperitoneal injections were 200 μL in volume, as larger volumes could alter peritoneal elimination kinetics.

For Pexiganan, the “survival outcome after 11 doses at the MND” value (BALB/c mice [1]; 10 BALB/c mice, 11 intraperitoneal doses at the MND (Pexiganan 32 mg/kg, Ω76 64 mg/kg), 12 hour intervals over 5 days) was “died”, the “mortality after 11 doses at the MND” value (BALB/c mice [1]; 10 BALB/c mice, 11 intraperitoneal doses of Pexiganan at the MND (32 mg/kg), 12 hour intervals over 5 days) was 100% and the “autopsy finding, peritoneal organs” value (BALB/c mice [1]; BALB/c mice, intraperitoneal doses at the MND at 12 hour intervals (Ω76 11 doses of 64 mg/kg over 5 days; Pexiganan 32 mg/kg until mortality)) was “intestinal inflammation is clearly visible”. For the same substance, the “maximum nonlethal dose (MND)” value (BALB/c mice [2]) was 64 mg/kg and 32 mg/kg and the “solubility in phosphate buffered saline (PBS) compared with physiological saline” value [3] was “poorer solubility”.

Source: doi:10.1101/761585v1, “A simple method to determine the elimination half-life of drugs displaying noncumulative toxicity” (bioRxiv, 2019)
